From article PMC7794631 (Medicinal Chemistry Research, 2021)
Read-outs that look alike come from different tables or passages of the source.

How the values were obtained:
in vitro [1] = settings: human, Compound only, percent viable cells ± standard deviation
in vitro [2] = settings: dog
HFFs = test: Cell viability assay; assay type: cell-based, human; settings: read-out: CC50 (μM) ± s.d., 6 days, MTS assay, mean of 2–3 dose–response determinations
IAV A/WS/33 (H1N1) [3] = tested on: IAV A/WS/33 (H1N1)
HCMV ADCREGFP [4] = settings: HFFs; for EC50: read-out: EC50 (μM) ± s.d., GFP reporter HCMV, GFP expression 6 days after compound, mean of 2–3 dose–response determinations
Huh-7 cells = settings: at 0.1 μM, Huh-7, 5 days
IAV A/WS/33 (H1N1) [5] = test: microbe, parasite or virus in culture; settings: Influenza A virus, H1N1, MDCK, 24 h
[6] = tested on: HCMV immediate-early protein 2 (IE2); settings: infected and treated cells; cited from earlier work
MDCK cells = settings: 24 h, T-1105 at 12.5 μM
HCMV ADCREGFP [7] = settings: cited from earlier work
[8] = tested on: HCMV immediate-early protein 1 (IE1); settings: infected and treated cells; cited from earlier work
IAV A/WS/33 (H1N1) [9] = settings: cited from earlier work
HCoV-OC43 = settings: at 1 μM, Huh7, 5 days
[10] = MDCK CPE assay, p97 inhibitors 0.1, 0.25, 0.5 μM, T-1105 at 12.5 μM

Question: With Cc1cc2c(C(N)=O)cccc2n1-c1nc2c(c(NCc3ccccc3)n1)COCC2 [CB-5083] as the molecule, how does the viability at 0.25 µM (in vitro [1]) read?
Answer: Its viability at 0.25 µM is 59 ± 3%.

Question: What about the viability at 0.5 µM (in vitro [1]) of the same molecule?
Answer: Its viability at 0.5 µM is 38 ± 1%.

Question: What about the viability at 0.1 µM (in vitro [2]) of the same molecule?
Answer: The viability at 0.1 µM was 97 ± 3%.

Question: And the CC50 (HFFs)?
Answer: Its CC50 is 0.53 ± 0.1 µM.

Question: What about the “anti-IAV activity (in words)” value (IAV A/WS/33 (H1N1) [3]) of the same molecule?
Answer: Its value is “no detectable anti-IAV activity”.

Question: And the EC50 (HCMV ADCREGFP [4])?
Answer: Its EC50 is 0.72 ± 1.1 µM.

Question: With Cc1cc(OCc2nnc(SC3CCCC3)n2-c2cccnc2)ccc1-c1ccc(S(C)(=O)=O)cc1 [NMS-873] as the molecule, how does the “effect on cell viability (in words)” value (Huh-7 cells) read?
Answer: The value was “clear effect on cell viability”.

Question: And the inhibition at 0.1 µM (IAV A/WS/33 (H1N1) [5]; read-out: Compound + Virus, percent viable cells ± standard deviation, 0.1 μM, MDCK, 24 h)?
Answer: Its inhibition at 0.1 µM is 21 ± 7%.

Question: And the inhibition at 0.25 µM (IAV A/WS/33 (H1N1) [5]; read-out: Compound + Virus, percent viable cells ± standard deviation, 0.25 μM, MDCK, 24 h)?
Answer: Its inhibition at 0.25 µM is 62 ± 6%.

Question: What about the IE2 expression [6] of the same molecule?
Answer: Its IE2 expression is “reduced”.

Question: And the “cell viability in IAV assay (in words)” value (MDCK cells)?
Answer: The value was “retention of cell viability”.

Question: And the “HCMV replication (in words)” value (HCMV ADCREGFP [7])?
Answer: Its value is “reduced virus replication”.

Question: What about the viability at 0.1 µM (in vitro [2]) of the same molecule?
Answer: The viability at 0.1 µM was 89 ± 3%.

Question: What about the viability at 0.25 µM (in vitro [2]) of the same molecule?
Answer: The viability at 0.25 µM was 80 ± 2%.

Question: What about the viability at 0.5 µM (in vitro [2]) of the same molecule?
Answer: Its viability at 0.5 µM is 94 ± 2%.

Question: What about the CC50 (HFFs) of the same molecule?
Answer: The CC50 was 4.1 ± 3.3 µM.

Question: And the “anti-IAV activity (in words)” value (IAV A/WS/33 (H1N1) [3]; [10])?
Answer: The value was “Clear antiviral effects”.

Question: What about the IE1 expression [8] of the same molecule?
Answer: Its IE1 expression is “not affected”.

Question: And the “TI, tissue culture therapeutic index (CC50/EC50)” value (HCMV ADCREGFP [4]; HCMV)?
Answer: Its value is 1.9.

Question: And the EC50 (HCMV ADCREGFP [4])?
Answer: Its EC50 is 2.2 ± 2.5 µM.

Question: And the “IAV virus production (in words)” value (IAV A/WS/33 (H1N1) [9])?
Answer: The value was “inhibits virus production”.

Question: For CCC(CC)COC(=O)[C@H](C)N[P@](=O)(OC[C@H]1O[C@@](C#N)(c2ccc3c(N)ncnn23)[C@H](O)[C@@H]1O)Oc1ccccc1 [RDV, remdesivir], which “protection against HCoV-OC43 CPE” value (HCoV-OC43) is on record?
Answer: The value was 100%.

Question: For NC(=O)c1nccnc1O [Compound T-1105, 3-hydroxypyrazine-2-carboxamide], which “cell viability in IAV assay (in words)” value (MDCK cells) is on record?
Answer: Its value is “retention of cell viability”.

Question: And the “anti-IAV activity (in words)” value (IAV A/WS/33 (H1N1) [3]; [10])?
Answer: The value was “Clear antiviral effects”.
